The text below walks through data of article PMC12348470, “Amino Acid Substitutions in Bacteriocin Lactolisterin BU Reveal Functional Domains Involved in Biological Activity Against Staphylococcus aureus” (Molecules, 2025).

Series [1] concerns S. aureus ATCC 25923. The series is described as follows: Spot-on-the-lawn antimicrobial screening. Format: cell-based, Staphylococcus aureus. As to conditions: 5 µL spots at 1000, 500, 250, 125 and 62.5 µg/mL on LB soft agar lawn; overnight, 37 °C. As to the method:
The antimicrobial activity screening assay of twelve chemically synthesized peptides was evaluated using a spot-on-the-lawn assay against S. aureus ATCC 25923.
S. aureus ATCC 25923 was grown overnight in LB broth, adjusted to 0.5 McFarland (~1 × 10^8 CFU/mL), and mixed 1:100 into molten soft agar (0.7% agar in LB). Five milliliters of this suspension was overlaid onto LB agar plates and allowed to solidify.
Peptide stock solutions (1 mg/mL) were serially diluted in sterile water, and 5 µL of each dilution was carefully spotted onto the surface of the inoculated agar. The plates were dried under a laminar flow hood for 15–20 min and incubated overnight at 37 °C. Zones were observed, and their size and clarity were compared.

In series [2] the test system is S. aureus ATCC 25923. Format: cell-based, Staphylococcus aureus. Here is the method: MIC values were determined by broth microdilution following the guidelines of the European Committee on Antimicrobial Susceptibility Testing (EUCAST, Version 5.0), with a modification in the choice of medium. Instead of cation-adjusted Mueller–Hinton Broth (CA-MHB), Luria–Bertani (LB) broth was used for all MIC assays involving S. aureus ATCC 25923 to ensure consistency with conditions used in complementary experiments. Two-fold serial dilutions of peptides (ranging from 1.56 to 50 µg/mL) were prepared in sterile LB, inoculated with ~5 × 10^5 CFU/mL bacterial suspension, and incubated at 37 °C for 18–20 h. MIC was defined as the lowest peptide concentration with no visible bacterial growth. All assays were performed in triplicate.

In series [3] the test system is S. aureus ATCC 25923. Format: cell-based, Staphylococcus aureus. The source holds these as a separate data set.
Series [4] relates to sheep erythrocytes. The series is described as follows: Hemolysis assay. The series is classed as cell-based. As to the method:
Hemolytic activity of peptides was assessed as described by Dong et al., with some modifications. Fresh defibrinated sheep blood was obtained from the Institute of Virology, Vaccines and Sera “Torlak” (Belgrade, Serbia). Erythrocytes were washed three times with sterile Tris-buffered saline (TBS, 10 mM TRIS-HCl, pH 7.4, 150 mM NaCl) by centrifugation at 800× g for 5 min and resuspended to a final 2% (v/v) erythrocyte suspension in TBS.
Peptide solutions (0.02 M HCl) were diluted in Tris-buffered saline (TBS, 10 mM TRIS-HCl, pH 7.4, 150 mM NaCl) to final concentrations ranging from 6.25 to 50 µg/mL. In a 96-well flat-bottom plate, 100 µL of peptide solution was mixed with 100 µL of erythrocyte suspension and incubated at 37 °C for 1 h.
After incubation, the plates were centrifuged at 1000× g for 5 min, and 100 µL of the supernatant was transferred to a flat-bottom 96-well plate. Absorbance was measured at 540 nm using a microplate reader (model BioTek Epoch Microplate Spectrophotometer; Agilent Technologies, Winooski, VT, USA).
Hemolysis (%) was calculated relative to a negative control (TBS; 0% lysis) and a positive control (0.1% SDS; 100% lysis) using the formula: Hemolysis (%)=Asample−ATBS/ASDS−ATBS×100
The assay was performed in triplicate.

Series [5] deals with gut peptidases. On the set-up: method as in PMID 28842543. As to conditions: cited from earlier work.
Details of series [6]: method as in PMID 28842543. As to conditions: cited from earlier work.
For series [7], the system named is Danio rerio embryos. As to the kind of experiment: Zebrafish embryo toxicity (OECD TG 236). Format: in vivo. Particulars: 120 hpf. As to the method:
Embryos were exposed to six different increasing concentrations of each peptide for 5 consecutive days (120 hfp) and examined for survival and signs of toxicity, following toxicological endpoints (Table S1).
The toxicity of synthetic peptide variants was assessed in vivo using Danio rerio embryos, in accordance with OECD Test Guideline 236 (Fish Embryo Acute Toxicity Test) and the European Directive 2010/63/EU on the protection of animals used for scientific purposes, according to Aleksic et al.. All procedures were conducted at the Institute of Molecular Genetics and Genetic Engineering, University of Belgrade.
Wild-type adult zebrafish were maintained under standard laboratory conditions (28 °C; 14:10 h light–dark cycle). Embryos were obtained via pairwise mating and collected within 1 h post-fertilization (hpf). At 5 hpf, the embryos were randomly distributed into 24-well plates (10 embryos/well, 1 mL embryo medium per well) containing embryo water (0.2 mg/mL Instant Ocean® salts in distilled water). Peptides were tested at five concentrations (e.g., 1.56–25 µg/mL) in triplicate. Peptide solvent was used as a negative control. The plates were incubated at 28 °C without media replacement.
Embryonic development was monitored using an inverted microscope (Zeiss Stemi 508; Carl Zeiss Microscopy GmbH, Jena, Germany). Lethal endpoints and sublethal malformations were scored according to OECD guidelines (Table S1). At 120 hpf, the embryos were anesthetized using 0.1% tricaine, photographed, and euthanized via freezing at −20 °C for 24 h.
LC50 values were estimated using the log–logistic binomial model (LL.2) from the drc package in R.
Dose–response curves and LC50 values were estimated using the log–logistic binomial model (LL.2) from the drc package in R [79] (version 2025.05.0). Mortality data were modeled as proportions of dead individuals relative to total individuals tested, and 95% confidence intervals for LC50 were calculated using the delta method.

Ends that are not written are not given here.

By MIC is commonly meant the lowest concentration found to suppress growth. Low readings indicate greater potency, high ones weaker potency. A word on the MBC: it is the smallest concentration meeting the test's criterion for killing. A higher MBC goes with less potent killing. For the sequence “MEGRILGTVAKYGPKAVSWAWQHKWELINMGDLAFRYIQRIWG [Peptide W2E]”, the “zones of inhibition, spot-on-the-lawn assay” value (“zones of inhibition” below) in series [1] is given as “decreased antimicrobial potency”. The sequence further registered an MIC in series [2] of more than 50 µg/mL. In series [3], this sequence gave an MBC of more than 50 µg/mL.

On to “MWARILGTVAKYGPKAVSWAWQAKWELINMGDLAFRYIQRIWG [G3A/H23A]”, for which the “zones of inhibition” value in series [1] was “complete loss of antimicrobial activity”. The same sequence had an MIC in series [2] of more than 50 µg/mL. The same sequence gave an MBC in series [3] of more than 50 µg/mL.

Consider “MWGRILGTVAKYGAKAVSWAWQHKWELINMGDLAFRYIQRIWG [Peptide P14A]”, for which the “zones of inhibition” value in series [1] is “only faint inhibition zones at the highest concentrations (1000 and 500 µg/mL)”. In series [2], the MIC is reported as 25 µg/mL.

As for “MWGRILGTVAKYGPKAVSWAWQAKWELINMGDLAFRYIQRIWG [Peptide H23A]”, the “zones of inhibition” value in series [1] is recorded as “complete loss of antimicrobial activity”. Also, the MIC in series [2] is on record as more than 50 µg/mL. The sequence further had a minimum bactericidal concentration (MBC) in series [3] of more than 50 µg/mL.

With “MWGRILGTVAKYGPKAVSWAWQHKWELINMGDLAFRYIQRIWG [LBU]”, the “zones of inhibition” value in series [1] is “clear zones of inhibition across the tested concentrations, except 62.5 µg/mL”. For the same sequence, the “hemolytic activity, in words” value in series [4] (6.25 to 50 µg/mL, sheep erythrocytes, 37 °C, 1 h) was “negligible hemolytic activity across all concentrations”. Also, the “Hemolytic activity (%) at 50 µg/mL” value in series [4] (pH 7.4) came to 2.98%. Further, in series [5], the “sensitivity to gut peptidases” value is “sensitive to gut peptidases”. Further, in series [6], the “pH range of activity” value is “shows activity in a wide pH range” and the salt tolerance entry is on record as “salt-tolerable”. The MIC in series [2] is recorded as 12.5 µg/mL. Moreover, in series [7], the “concentration at which yolk sac retention was observed” value was found to be 6250 ng/mL. Also, the MBC in series [3] is 25 µg/mL.

Take “MWGRILGTVAKYGPKAVSWAWQRKWELINMGDLAFRYIQRIWG [Peptide H23R]”: in series [1], the “zones of inhibition” value is on record as “comparable to the wild-type LBU peptide”. In addition, the MIC in series [2] was 12.5 µg/mL. The MBC in series [3] amounted to 50 µg/mL.

Consider “MWGRILGTVAKYGTKAVSWAWQHKWELINMGDLAFRYIQRIWG [Peptide P14T]”, for which the “zones of inhibition” value in series [1] is recorded as “retained partial activity with a mild decrease in zone diameter compared to LBU”. The sequence further returned an MIC in series [2] of 25 µg/mL. This sequence also gave an MBC in series [3] of more than 50 µg/mL.
